In publication PMC7594025, “Synthesis, Docking, 3-D-Qsar, and Biological Assays of Novel Indole Derivatives Targeting Serotonin Transporter, Dopamine D2 Receptor, and Mao-A Enzyme: In the Pursuit for Potential Multitarget Directed Ligands” (Molecules, 2020):
Where two headings read alike, the source gives them in different places.

Columns and labels:
SERT = biological target: T1, SERT (Homo sapiens, UniProt P31645); assay: SERT competitive binding assay, [3H]-paroxetine, membranes from HEK-293 clonal cell line overexpressing SERT
T1 construct: purchased Perkin-Elmer (Boston, MA, USA) RBHSTM400UA; host or cells: HEK-293 clonal cell line
Method: To determine the binding of all compounds at SERT, competitive binding assays were performed according to previously reported procedures with some modifications. […] Control curve was performed with fluoxetine in the same experimental conditions. Non-specific binding was determined with 10 µM fluoxetine.
The IC50 and Ki values correspond to the results of three independent experiments, each in triplicate. All data are expressed as the mean ± SEM.

D2 receptor = biological target: T2, D2 receptor (Homo sapiens, UniProt P14416); assay: D2 receptor competitive binding assay, [3H]-methylspiperone, membranes from CHO-K1 clonal cell line overexpressing D2 receptor; conditions: for Ki: 0.5 nM [3H]-methylspiperone, 2 h at 27 °C, mean ± SEM of three experiments, each in triplicate
T2 construct: purchased Perkin-Elmer (Boston, MA, USA) RBHD2CM400UA; host or cells: CHO-K1 clonal cell line
Method: To determine the binding of all compounds at D2 receptor, competitive binding assays were performed according to provider indications with some modifications. […] Radioactivity was counted as described before.

rat MAO-A = biological target: T3, rat MAO-A (Rattus norvegicus, UniProt P21396); assay: MAO-A inhibition, crude rat brain mitochondrial suspension, serotonin substrate, HPLC-ED; format: biochemical; conditions: 100 µM compound; serotonin 100 µM as substrate
T3 construct: using a crude rat brain mitochondrial suspension as a source of enzyme; from tissue; host or cells: rat brain (crude mitochondrial suspension)
T3 sequence (P21396 1-526): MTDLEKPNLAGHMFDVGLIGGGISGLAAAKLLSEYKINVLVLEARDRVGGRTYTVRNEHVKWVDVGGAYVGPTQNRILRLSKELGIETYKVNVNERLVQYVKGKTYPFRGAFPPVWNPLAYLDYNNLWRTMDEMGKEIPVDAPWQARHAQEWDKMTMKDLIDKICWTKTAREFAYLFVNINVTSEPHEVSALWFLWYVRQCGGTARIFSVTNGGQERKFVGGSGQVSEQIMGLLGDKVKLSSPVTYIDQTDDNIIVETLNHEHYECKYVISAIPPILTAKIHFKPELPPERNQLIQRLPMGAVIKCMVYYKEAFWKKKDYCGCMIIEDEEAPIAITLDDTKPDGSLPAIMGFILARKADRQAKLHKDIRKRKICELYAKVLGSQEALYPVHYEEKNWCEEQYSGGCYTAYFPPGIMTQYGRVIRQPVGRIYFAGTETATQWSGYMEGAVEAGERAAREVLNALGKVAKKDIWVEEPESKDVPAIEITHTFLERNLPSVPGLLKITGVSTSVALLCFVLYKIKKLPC
Method: The effects of the compounds on rat MAO-A activity were studied following a previously reported methodology, using a crude rat brain mitochondrial suspension as a source of enzyme. Serotonin (100 µM) was used as the selective substrate for MAO-A. This compound and its metabolite were detected by HPLC with electrochemical detection. As an exploratory evaluation, the percentage of MAO-A inhibition in the presence of 100 µM of the different compounds was determined, with the idea of evaluating in detail those compounds showing an inhibitory activity in the range of 70–100%.

[1] = 2 nM [3H]-paroxetine, 1 h at 27 °C, mean ± SEM of three experiments, each in triplicate, read-out: Ki SERT
[2] = SERT, experimental values used for CoMFA/CoMSIA (Table S3), read-out: Exp. pKi (converted)

T1 sequence (P31645 whole entry): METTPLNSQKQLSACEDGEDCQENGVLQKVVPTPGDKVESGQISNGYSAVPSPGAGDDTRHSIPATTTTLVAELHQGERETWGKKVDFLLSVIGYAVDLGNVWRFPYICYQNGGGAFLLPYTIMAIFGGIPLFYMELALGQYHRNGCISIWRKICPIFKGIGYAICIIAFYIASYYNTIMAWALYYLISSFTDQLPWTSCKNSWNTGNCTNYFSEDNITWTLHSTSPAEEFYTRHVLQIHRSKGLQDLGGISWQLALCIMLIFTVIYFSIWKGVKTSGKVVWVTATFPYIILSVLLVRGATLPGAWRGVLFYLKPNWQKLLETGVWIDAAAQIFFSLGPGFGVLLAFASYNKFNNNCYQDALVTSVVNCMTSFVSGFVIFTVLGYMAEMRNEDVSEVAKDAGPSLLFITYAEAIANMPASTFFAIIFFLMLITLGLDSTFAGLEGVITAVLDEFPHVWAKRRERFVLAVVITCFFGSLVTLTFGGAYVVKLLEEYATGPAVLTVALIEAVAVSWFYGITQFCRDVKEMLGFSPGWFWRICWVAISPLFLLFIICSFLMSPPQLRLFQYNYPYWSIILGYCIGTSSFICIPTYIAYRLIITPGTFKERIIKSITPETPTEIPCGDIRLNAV
T2 sequence (P14416 whole entry): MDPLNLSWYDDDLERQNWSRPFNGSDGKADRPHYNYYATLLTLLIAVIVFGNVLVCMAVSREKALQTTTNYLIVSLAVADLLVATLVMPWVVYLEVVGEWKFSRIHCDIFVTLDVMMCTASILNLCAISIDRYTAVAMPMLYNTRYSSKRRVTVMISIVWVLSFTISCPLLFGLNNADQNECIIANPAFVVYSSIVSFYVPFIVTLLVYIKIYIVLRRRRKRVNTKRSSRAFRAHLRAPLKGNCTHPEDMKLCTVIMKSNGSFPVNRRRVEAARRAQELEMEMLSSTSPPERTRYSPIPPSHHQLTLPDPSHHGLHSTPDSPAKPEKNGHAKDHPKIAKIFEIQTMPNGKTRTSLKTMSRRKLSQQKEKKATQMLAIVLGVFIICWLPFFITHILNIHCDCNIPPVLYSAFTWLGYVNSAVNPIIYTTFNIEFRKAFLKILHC

Structure (SMILES) | melting point | Ki (SERT; [1]) | Ki (D2 receptor) | inhibition at 100 µM (rat MAO-A) | Ki (SERT; [2]) | D2/SERT ratio (D2 receptor; ratio of Ki at D2 receptor to Ki at SERT)
O=C(CN1CCN(CCCc2c[nH]c3ccccc23)CC1)Nc1ccc(F)c(C(=O)NCCN2CCOCC2)c1 [Compound 13k, 2-Fluoro-5-(2-{4-[3-(1H-3-indolyl)-propyl]-1-piperazinyl}-acetylamino)-N-(2-morpholin-4-yl-ethyl) Benzamide] | 69.7 to 71.5 °C | 26.8 ± 0.91 nM | 4170 ± 335 nM | 34% | – | –
O=C(CN1CCN(CCCc2c[nH]c3ccc(F)cc23)CC1)Nc1cc(C(=O)NCCN2CCOCC2)ccc1F [Compound 13b, 4-Fluoro-3-(2-{4-[3-(5-fluor-1H-3-indolyl)-propyl]-1-piperazinyl}-acetylamino)-N-(2-morpholin-4-yl-ethyl) Benzamide] | 92.2 to 93.9 °C | 23.8 ± 0.46 nM | 3100 ± 42 nM | 42% | – | –
O=C(CN1CCN(CCCc2c[nH]c3ccccc23)CC1)N1CCOc2ccc(Cl)cc21 [Compound 7d, 1-(6-Chloro-2,3-dihydro-benzo[b][1,4]oxazin-4-yl)-2-{4-[3-(1H-3-indolyl)-propyl]-1-piperazinyl} ethanamide] | 135.3 to 136.1 °C | 81.4 ± 4.97 nM | 1260 ± 182 nM | 18% | – | –
O=C(CN1CCN(CCCc2c[nH]c3ccc(F)cc23)CC1)N1CCOc2cc(F)ccc21 [Compound 7h, 1-(7-Fluoro-2,3-dihydro-benzo[b][1,4]oxazin-4-yl)-2-{4-[3-(5-fluoro-1H-3-indolyl)-propyl]-1-piperazinyl} ethanamide] | 168.1 to 169.9 °C | 7.61 ± 0.02 nM | 2320 ± 163 nM | 0% | – | –
O=C(CN1CCN(CCCc2c[nH]c3ccccc23)CC1)N1CCOc2cc(F)ccc21 [Compound 7b, 1-(7-Fluoro-2,3-dihydro-benzo[b][1,4]oxazin-4-yl)-2-{4-[3-(1H-3-indolyl)-propyl]-1-piperazinyl} ethanamide] | 124 to 125.3 °C | 181 ± 20 nM | 4740 ± 131 nM | 43% | – | –
O=C(CN1CCN(CCCc2c[nH]c3ccccc23)CC1)N1CCOc2ccc(F)cc21 [Compound 7c, 1-(6-Fluoro-2,3-dihydro-benzo[b][1,4]oxazin-4-yl)-2-{4-[3-(1H-3-indolyl)-propyl]-1-piperazinyl} ethanamide] | 123.8 to 125.1 °C | 68.8 ± 1.02 nM | 2390 ± 163 nM | 40% | – | –
O=C(CN1CCN(CCCc2c[nH]c3ccc(F)cc23)CC1)Nc1ccc(F)c(C(=O)NCCN2CCOCC2)c1 [Compound 13c, 2-Fluoro-5-(2-{4-[3-(5-fluor-1H-3-indolyl)-propyl]-1-piperazinyl}-acetylamino)-N-(2-morpholin-4-yl-ethyl) Benzamide] | 91.8 to 93.2 °C | 6.83 ± 0.19 nM | 593 ± 30.2 nM | 28% | – | –
O=C(CN1CCN(CCCc2c[nH]c3ccc(Br)cc23)CC1)N1CCOc2ccccc21 [Compound 7m, 1-(2,3-Dihydro-benzo[b][1,4]oxazin-4-yl)-2-{4-[3-(5-bromo-1H-3-indolyl)-propyl]-1-piperazinyl} ethanamide] | 90.5 to 92.4 °C | 50.2 ± 2.47 nM | 593 ± 62 nM | 30% | 50.1 nM | –
O=C(CN1CCN(CCCc2c[nH]c3ccccc23)CC1)N1CCOc2ccc(Br)cc21 [Compound 7e, 1-(6-Bromo-2,3-dihydro-benzo[b][1,4]oxazin-4-yl)-2-{4-[3-(1H-3-indolyl)-propyl]-1-piperazinyl} ethanamide] | 132.7 to 134.1 °C | 36.6 ± 0.55 nM | 910 ± 263 nM | 38% | – | –
O=C(CN1CCN(CCCc2c[nH]c3ccc(Br)cc23)CC1)N1CCOc2cc(F)ccc21 [Compound 7n, 1-(7-Fluoro-2,3-dihydro-benzo[b][1,4]oxazin-4-yl)-2-{4-[3-(5-bromo-1H-3-indolyl)-propyl]-1-piperazinyl} ethanamide] | 96.1 to 98.1 °C | 84.4 nM | 307 ± 6 nM | 23% | – | 3.6
COc1ccc2c(c1)N(C(=O)CN1CCN(CCCc3c[nH]c4ccccc34)CC1)CCO2 [Compound 7f, 1-(6-Methoxy-2,3-dihydro-benzo[b][1,4]oxazin-4-yl)-2-{4-[3-(1H-3-indolyl)-propyl]-1-piperazinyl} ethanamide] | 123.6 to 125.1 °C | 412 ± 57.9 nM | 4410 ± 647 nM | 58% | – | –
COc1ccc2c(c1)N(C(=O)CN1CCN(CCCc3c[nH]c4ccc(F)cc34)CC1)CCO2 [Compound 7l, 1-(6-Methoxy-2,3-dihydro-benzo[b][1,4]oxazin-4-yl)-2-{4-[3-(5-fluoro-1H-3-indolyl)-propyl]-1-piperazinyl} ethanamide] | 94.5 to 97.3 °C | 12.6 ± 1.52 nM | 3320 ± 256 nM | 52% | – | –
O=C(CN1CCN(CCCc2c[nH]c3ccc(F)cc23)CC1)N1CCOc2ccc(F)cc21 [Compound 7i, 1-(6-Fluoro-2,3-dihydro-benzo[b][1,4]oxazin-4-yl)-2-{4-[3-(5-fluoro-1H-3-indolyl)-propyl]-1-piperazinyl} ethanamide] | 166.8 to 168.1 °C | 7.51 ± 0.12 nM | 1680 ± 79 nM | 0% | – | –
O=C(CN1CCN(CCCc2c[nH]c3ccc(Br)cc23)CC1)N1CCOc2ccc(F)cc21 [Compound 7o, 1-(6-Fluoro-2,3-dihydro-benzo[b][1,4]oxazin-4-yl)-2-{4-[3-(5-bromo-1H-3-indolyl)-propyl]-1-piperazinyl} ethanamide] | 97.2 to 98.8 °C | – | 1150 ± 227 nM | 26% | 34.9 nM | –
O=C(CN1CCN(CCCc2c[nH]c3ccc(F)cc23)CC1)N1CCOc2ccc(Cl)cc21 [Compound 7j, 1-(6-Chloro-2,3-dihydro-benzo[b][1,4]oxazin-4-yl)-2-{4-[3-(5-fluoro-1H-3-indolyl)-propyl]-1-piperazinyl} ethanamide] | 120.5 to 122.8 °C | 12.3 ± 2.31 nM | 902 ± 4 nM | 20% | – | –
O=C(CN1CCN(CCCc2c[nH]c3ccc(F)cc23)CC1)N1CCOc2ccccc21 [Compound 7g, 1-(2,3-Dihydro-benzo[b][1,4]oxazin-4-yl)-2-{4-[3-(5-fluoro-1H-3-indolyl)-propyl]-1-piperazinyl} ethanamide] | 168.4 to 171.3 °C | 9.63 ± 0.31 nM | 2320 ± 64 nM | 41% | – | –
O=C(CN1CCN(CCCc2c[nH]c3ccc(Br)cc23)CC1)Nc1cc(F)ccc1C(=O)NCCN1CCOCC1 [Compound 13e, 4-Fluoro-2-(2-{4-[3-(5-bromo-1H-3-indolyl)-propyl]-1-piperazinyl}-acetylamino)-N-(2-morpholin-4-yl-ethyl) Benzamide] | 92.1 to 93.8 °C | 223 ± 16.4 nM | 5619 ± 31 nM | 39% | – | –
O=C(CN1CCN(CCCc2c[nH]c3ccc(Br)cc23)CC1)Nc1ccc(F)c(C(=O)NCCN2CCOCC2)c1 [Compound 13g, 2-Fluoro-5-(2-{4-[3-(5-bromo-1H-3-indolyl)-propyl]-1-piperazinyl}-acetylamino)-N-(2-morpholin-4-yl-ethyl) Benzamide] | 73.2 to 74.5 °C | 12.6 ± 0.42 nM | 765 ± 16 nM | 16% | – | –
